Experimental data reported in US12077555B2, “STAT degraders and uses thereof” (Kymera Therapeutics, Inc., priority 2019, dated 2024).
Like-named read-outs stand apart in the source and are kept apart here.

Molecular target: STAT3 (Homo sapiens, UniProt P40763)
Assay: STAT3 HiBiT degradation assay in transfected A549 cells
Type: cell-based
Design: expressed in transfected cells; host or cells: A549
Outline: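 Degradation read as HiBiT-tagged STAT3 luminescence (Nano-Glo lytic reagent, 10 min, room temperature) following 24 h compound treatment of transfected A549 cells at 3-fold, 10 points. Percent remaining signal computed against controls and fitted with a four-parameter logistic; DC50 reported as letter bins (A <0.01 to D >1.0 µM).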

[1] = A549, 24 h; read-out: STAT3 HiBiT A549 degradation 24 h: Average external-Abs DC50

STAT3, sequence (P40763 whole entry): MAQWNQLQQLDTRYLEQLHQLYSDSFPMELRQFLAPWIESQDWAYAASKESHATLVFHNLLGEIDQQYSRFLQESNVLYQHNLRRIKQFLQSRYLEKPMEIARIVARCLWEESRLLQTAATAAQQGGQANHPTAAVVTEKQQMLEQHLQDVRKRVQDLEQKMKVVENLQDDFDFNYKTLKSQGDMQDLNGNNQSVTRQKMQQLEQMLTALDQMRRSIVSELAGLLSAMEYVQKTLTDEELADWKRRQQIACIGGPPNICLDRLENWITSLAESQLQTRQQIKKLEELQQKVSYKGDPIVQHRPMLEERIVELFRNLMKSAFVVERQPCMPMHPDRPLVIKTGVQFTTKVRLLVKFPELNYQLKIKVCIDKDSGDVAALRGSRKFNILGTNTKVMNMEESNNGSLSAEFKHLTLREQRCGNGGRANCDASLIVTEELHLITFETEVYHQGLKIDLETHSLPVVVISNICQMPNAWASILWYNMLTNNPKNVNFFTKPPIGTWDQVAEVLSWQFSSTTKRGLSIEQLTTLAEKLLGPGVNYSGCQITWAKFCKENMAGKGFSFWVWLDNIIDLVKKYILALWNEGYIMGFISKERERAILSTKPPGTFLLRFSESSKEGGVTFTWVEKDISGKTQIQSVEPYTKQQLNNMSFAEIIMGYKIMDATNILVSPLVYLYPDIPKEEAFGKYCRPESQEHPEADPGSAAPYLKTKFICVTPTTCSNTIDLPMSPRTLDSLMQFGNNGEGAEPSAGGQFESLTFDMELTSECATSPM

SMILES	DC50 [1] [nM]	DC50 (read-out: STAT3 HiBiT A549 degradation 24 h: Average external-Abs DC50; A549, 24 h) [nM]
Cc1ncsc1-c1ccc(CNC(=O)[C@@H]2C[C@@H](O)CN2C(=O)[C@@H](NC(=O)NCCCc2ccc(CO[C@H](C)[C@H](CCC(N)=O)NC(=O)[C@@H]3Cc4cccc5c4N3C(=O)[C@@H](NC(=O)c3cc4cc(C(=O)P(=O)(O)O)ccc4[nH]3)CC5)cc2)C(C)(C)C)cc1 [Compound I-151, 2-[[(2S,11S)-2-[[(3S,4R)-1-carbamoyl-4-([4-[3-([[(2S)-1-[(2S,4R)-4-hydroxy-2-([[4-(4-methyl-1,3-thiazol-5-yl)phenyl]methyl]carbamoyl)pyrrolidin-1-yl]-3,3-dimethyl-1-oxobutan-2-yl]carbamoyl]amino)propyl]phenyl]methoxy)pentan-3-yl]carbamoyl]-12-oxo-1-azatricyclo[6.4.1.0^[4,13]]trideca-4(13),5,7-trien-11-yl]carbamoyl]-1H-indole-5-carbonylphosphonic acid]	100 to 1000	–
Cc1ncsc1-c1ccc(CNC(=O)[C@@H]2C[C@@H](O)CN2C(=O)[C@@H](NC(=O)CCCCCc2ccc(OC[C@H](CCC(N)=O)NC(=O)[C@@H]3Cc4cccc5c4N3C(=O)[C@@H](NC(=O)c3cc4cc(C(=O)P(=O)(O)O)ccc4[nH]3)CC5)cc2)C(C)(C)C)cc1 [Compound I-152, 2-[[(2S,11S)-2-[[(2S)-4-carbamoyl-1-[4-(5-[[(2S)-1-[(2S,4R)-4-hydroxy-2-([[4-(4-methyl-1,3-thiazol-5-yl)phenyl]methyl]carbamoyl)pyrrolidin-1-yl]-3,3-dimethyl-1-oxobutan-2-yl]carbamoyl]pentyl)phenoxy]butan-2-yl]carbamoyl]-12-oxo-1-azatricyclo [6.4.1.0^[4,13]]trideca-4(13),5,7-trien-11-yl]carbamoyl]-1H-indole-5-carbonylphosphonic acid]	> 1000	–
Cc1ncsc1-c1ccc(CNC(=O)[C@@H]2C[C@@H](O)CN2C(=O)[C@@H](NC(=O)CCCCCCCCCOC[C@H](CCC(N)=O)NC(=O)[C@@H]2Cc3cccc4c3N2C(=O)[C@@H](NC(=O)c2cc3cc(C(=O)P(=O)(O)O)ccc3[nH]2)CC4)C(C)(C)C)cc1 [Compound I-153, 2-[[(2S,11S)-2-[[(2S)-4-carbamoyl-1-[(9-[[(2S)-1-[(2S,4R)-4-hydroxy-2-([[4-(4-methyl-1,3-thiazol-5-yl)phenyl]methyl]carbamoyl)pyrrolidin-1-yl]-3,3-dimethyl-1-oxobutan-2-yl]carbamoyl]nonyl)oxy]butan-2-yl]carbamoyl]-12-oxo-1-azatricyclo[6.4.1.0^[4,13]]trideca-4(13),5,7-trien-11-yl]carbamoyl]-1H-indole-5-carbonylphosphonic acid]	> 1000	–
Cc1ncsc1-c1ccc(CNC(=O)[C@@H]2C[C@@H](O)CN2C(=O)[C@@H](NC(=O)CCCCCCCCOC[C@H](CCC(N)=O)NC(=O)[C@@H]2Cc3cccc4c3N2C(=O)[C@@H](NC(=O)c2cc3cc(C(=O)P(=O)(O)O)ccc3[nH]2)CC4)C(C)(C)C)cc1 [Compound I-154]	> 1000	–
Cc1ncsc1-c1ccc(CNC(=O)[C@@H]2C[C@@H](O)CN2C(=O)[C@@H](NC(=O)CCCCCCCOC[C@H](CCC(N)=O)NC(=O)[C@@H]2Cc3cccc4c3N2C(=O)[C@@H](NC(=O)c2cc3cc(C(=O)P(=O)(O)O)ccc3[nH]2)CC4)C(C)(C)C)cc1 [Compound I-155]	> 1000	–
Cn1c(=O)n(C2CCC(=O)NC2=O)c2ccc(CCc3ccccc3CCC(=O)N3CC[C@H]4CC[C@@H](C(=O)N[C@@H](CCC(N)=O)C(=O)NC(c5ccccc5)c5ccccc5)N4C(=O)[C@@H](NC(=O)c4cc5cc(C(=O)P(=O)(O)O)ccc5[nH]4)C3)cc21 (stereo partly drawn) [Compound I-156, diammonium 2-[[(5S,8S,10aR)-8-[[(1S)-3-carbamoyl-1-(diphenylmethylcarbamoyl)propyl]carbamoyl]-3-[3-(2-[2-[1-(2,6-dioxopiperidin-3-yl)-3-methyl-2-oxo-1,3-benzodiazol-5-yl]ethyl]phenyl)propanoyl]-6-oxo-octahydropyrrolo[1,2-a][1,5]diazocin-5-yl]carbamoyl]-1H-indole-5-carbonylphosphonate]	–	100 to 1000
Cn1c(=O)n(C2CCC(=O)NC2=O)c2ccc(CN3CCN(CC(=O)N4CC[C@H]5CC[C@@H](C(=O)N[C@@H](CCC(N)=O)C(=O)NC(c6ccccc6)c6ccccc6)N5C(=O)[C@@H](NC(=O)c5cc6cc(C(=O)P(=O)(O)O)ccc6[nH]5)C4)CC3)cc21 (stereo partly drawn) [Compound I-157, 2-[[(5S,8S,10aR)-8-[[(1S)-3-carbamoyl-1-(diphenylmethylcarbamoyl)propyl]carbamoyl]-3-[2-(4-[[1-(2,6-dioxopiperidin-3-yl)-3-methyl-2-oxo-1,3-benzodiazol-5-yl]methyl]piperazin-l-yl)acetyl]-6-oxo-octahydropyrrolo[1,2-a][1,5]diazocin-5-yl]carbamoyl]-1H-indole-5-carbonylphosphonic acid]	100 to 1000	–
Cn1c(=O)n(C2CCC(=O)NC2=O)c2ccc(CC3CCN(CC(=O)N4CC[C@H]5CC[C@@H](C(=O)N[C@@H](CCC(N)=O)C(=O)NC(c6ccccc6)c6ccccc6)N5C(=O)[C@@H](NC(=O)c5cc6cc(C(=O)P(=O)(O)O)ccc6[nH]5)C4)CC3)cc21 (stereo partly drawn) [Compound I-158, 2-[[(5S,8S,10aR)-8-[[(1S)-3-carbamoyl-1-(diphenylmethylcarbamoyl)propyl]carbamoyl]-3-[2-(4-[[1-(2,6-dioxopiperidin-3-yl)-3-methyl-2-oxo-1,3-benzodiazol-5-yl]methyl]piperidin-1-yl)acetyl]-6-oxo-octahydropyrrolo[1,2-a][1,5]diazocin-5-yl]carbamoyl]-1H-indole-5-carbonylphosphonic acid]	> 1000	–
Cc1ncsc1-c1ccc(CNC(=O)[C@@H]2C[C@@H](O)CN2C(=O)[C@@H](NC(=O)CCCCCC#CCOC[C@H](CCC(N)=O)NC(=O)[C@@H]2Cc3cccc4c3N2C(=O)[C@@H](NC(=O)c2cc3cc(C(=O)P(=O)(O)O)ccc3[nH]2)CC4)C(C)(C)C)cc1 [Compound I-159]	100 to 1000	–
Cc1ncsc1-c1ccc(CNC(=O)[C@@H]2C[C@@H](O)CN2C(=O)[C@@H](NC(=O)CCC2CCN(c3ccc(CO[C@H](C)[C@H](CCC(N)=O)NC(=O)[C@@H]4Cc5cccc6c5N4C(=O)[C@@H](NC(=O)c4cc5cc(C(=O)P(=O)(O)O)ccc5[nH]4)CC6)cc3)CC2)C(C)(C)C)cc1 [Compound I-160, diammonium 2-[[(2S,11S)-2-[[(3S,4R)-1-carbamoyl-4-([4-[4-(2-[[(2S)-1-[(2S,4R)-4-hydroxy-2-([[4-(4-methyl-1,3-thiazol-5-yl)phenyl]methyl]carbamoyl)pyrrolidin-1-yl]-3,3-dimethyl-1-oxobutan-2-yl]carbamoyl]ethyl)piperidin-1-yl]phenyl]methoxy)pentan-3-yl]carbamoyl]-12-oxo-1-azatricyclo[6.4.1.0^4,13]]trideca-4(13),5,7-trien-11-yl]carbamoyl]-1H-indole-5-carbonylpho sphonate]	> 1000	–
Cc1ncsc1-c1ccc(CNC(=O)[C@@H]2C[C@@H](O)CN2C(=O)[C@@H](NC(=O)C2CCN(c3ccc(CO[C@H](C)[C@H](CCC(N)=O)NC(=O)[C@@H]4Cc5cccc6c5N4C(=O)[C@@H](NC(=O)c4cc5cc(C(=O)P(=O)(O)O)ccc5[nH]4)CC6)cc3)CC2)C(C)(C)C)cc1 [Compound I-161]	> 1000	–
